The source of these data is patent US8871510B2, “Methods for generating T lymphocytes from hematopoietic stem cells” (University of Utah Research Foundation, priority 2009, dated 2014).

Test [1] deals with mouse lymphoid progenitor cells (c-kit+Sca-1+ lineage-neg CD90.1-neg). Description: Ascorbate versus other anti-oxidants in OP9-DL1 lymphoid progenitor culture (30 days). Format: cell-based. Particulars: added after 14 days, culture through 30 days; anti-oxidants data not shown. The procedure:
To establish the mechanism by which ascorbic acid promotes T cell development, we initially tested whether the anti-oxidant activity of ascorbic acid plays a key role. To test this, mouse lymphoid progenitor cells were isolated from adult bone marrow tissue by flow sorting, based on the phenotype c-kit+Sca-1+ lineage-neg CD90.1-neg, and 1000-2000 cells were plated per ml in the presence of the cytokines IL7 and Flt3L and the stromal cell line OP9-DL1. Cultures were harvested by forceful pipetting every 3-4 days and reseeded on a fresh monolayer of OP9-DL1 cells. After 14 days in culture, the cell number had expanded approximately 1000-fold (data not shown). At this point, the culture was split into two conditions, with one set of cultures supplemented with 1-ascorbic acid-2-phosphate (250 μg/ml), and the passages were continued through 30 days. […] Numbers indicate the percentage of cells with co-expression of CD4 and CD8 or CD3 and TCR.

The subject of test [2] is mouse bone marrow-derived progenitor cells. Put plainly: Growth kinetics of bone marrow-derived progenitor cells in OP9-DL1 cultures (cytokines, ΔQ, NH4Cl). Format: cell-based. The source says:
The combination of Flt3L and IL-7 promotes 10^5-fold expansion over 26 days, while addition of stem cell factor (SCF) enhances this by 5-fold. […] The growth inhibition is mainly due to the failure of selection by TCR signaling, as shown by the failure of CD4^+CD8^+ double positive (DP) cells to survive and expand.
In this Example, several important variables that are important to the successful development of T lymphocytes from bone marrow-derived cells were identified. […] Our experiments defining optimal culture conditions tell us that in order to promote T cell development from bone marrow-derived progenitor cells, a two-stage culture system is required. In the first stage, bone marrow cells are expanded under the influence of lymphoid-specifying cytokines (IL-7 and Flt3 ligand) and notch signaling delivered by OP9-DL1 cells. The expansion of the resulting pro-T cells is robust, reaching a total expansion of 10^5-fold or more (FIG. 1).
All cultures were initiated by seeding 2×10^3 FACS-sorted bone marrow progenitor cells, selected based on the surface phenotype c-kit+Sca-1+Thy-1.1-neg lineage-neg, onto a feeder layer of OP9-DL1 stromal cells. All cultures contained 1 ng/ml IL-7 and 5 ng/ml Flt3L and otherwise identical additives (10% fetal calf serum, stabilized alanyl-glutamine, antibiotics, 2-ME, supplemental amino acids, and supplemental vitamins).

Test [3] concerns Lymphocyte progenitor cells (KLS, Thy1.1-). Put plainly: TLR-L and ascorbic acid effects on NK and T cell development from lymphoid progenitors co-cultured with OP9-DL1. In kind it is cell-based, mouse. The note with it: SCF contaminated with LPS through production in E. coli. As for the experimental part:
We therefore designed experiments to evaluate the differential effects of TLR-L and ascorbic acid on NK and T cell development from lymphoid progenitors co-cultured with OP9-DL1 stromal cells. Lymphocyte progenitor cells (KLS, Thy1.1-) were sorted from adult mouse bone marrow and 1000-2000 progenitor cells were seeded per well in a 24 well plate coated with OP9-DL1 stroma. Cultures were supplemented with IL-7 (5 ng/ml), Flt3 ligand (5 ng/ml), and SCF (100 ng/ml) plus one of 5 different TLR-L (TLR1/2, TLR3, TLR4, TLR5, and a crude LPS preparation that likely contains a number of TLR-L), with or without addition of a stabilized form of ascorbic acid, phosphoascorbate at a final concentration of 250 μg/ml. Cells were passaged, counted and re-seeded with fresh media and supplements twice a week over a 30-day period. Immunophenotype and viability were evaluated by flow cytometry. Markers for T cell development included CD44, CD25, CD3, CD4, CD8, T cell receptor […] and T cell receptor γδ chains. NK cells were evaluated for the presence of NKp46, NK1.1, and DX5.

With `N[C@@H](CS)C(=O)O` [1-cysteine], in test [1], the “Differentiating effect (CD4/CD8 and CD3/TCR co-expression)” value is reported as “not reproduced”.
Same read-out and setting: the entry for `CC(=O)N[C@@H](CS)C(=O)O` [N-acetyl-cysteine] is “not reproduced”.
With `Cl.N` [NH4Cl, reference compound], the “Expansion of the T lineage” value in test [2] (day 15 of culture, FIG. 1B) is on record as “cease to expand”.
As to `O=C(O)CCCCC1CCSS1` (stereo not drawn) [alpha-lipoic acid], in test [1], the “Differentiating effect (CD4/CD8 and CD3/TCR co-expression)” value is reported as “not reproduced”.
As for “SCF: stem cell factor; in b105 contaminated with LPS through its production in E. coli”, in test [2] (over 26 days, FIG. 1A), the “Enhancement of expansion on addition to Flt3L and IL-7” value worked out at 5 fold. For the same compound, the “Promotion of NK cell development in the OP9-DL1 culture system” value in test [3] is “particularly effective”.
